Results reported in patent US8859493B2, “Insulin derivatives” (Novo Nordisk A/S, priority 2005, dated 2014).

What follows are substances tested against human insulin receptor (Homo sapiens, UniProt P06213) (assay: Insulin receptor binding, SPA (Scintillation Proximity Assay) microtiterplate antibody capture assay). Conditions: relative to human insulin; purified recombinant human insulin receptor - exon 11; A14 Tyr[125I]-human insulin tracer; 16 hours incubation.
Protocol: The affinity of the insulin analogues of the invention for the human insulin receptor was determined by a SPA assay (Scintillation Proximity Assay) microtiterplate antibody capture assay. SPA-PVT antibody-binding beads, anti-mouse reagent (Amersham Biosciences, Cat No. PRNQ0017) were mixed with 25 ml of binding buffer (100 mM HEPES pH 7.8; 100 mM sodium chloride, 10 mM MgSO4, 0.025% Tween-20). Reagent mix for a single Packard Optiplate (Packard No. 6005190) is composed of 2.4 μl of a 1:5000 diluted purified recombinant human insulin receptor—exon 11, an amount of a stock solution of A14 Tyr[^125I]-human insulin corresponding to 5000 cpm per 100 μl of reagent mix, 12 μl of a 1:1000 dilution of F12 antibody, 3 ml of SPA-beads and binding buffer to a total of 12 ml. A total of 100 μl was then added and a dilution series is made from appropriate samples. To the dilution series was then added 100 μl of reagent mix and the samples were incubated for 16 hours while gently shaken. The phases were the then separated by centrifugation for 1 min and the plates counted in a Topcounter. The binding data were fitted using the nonlinear regression algorithm in the GraphPad Prism 2.01 (GraphPad Software, San Diego, Calif.).

human insulin receptor, sequence (P06213 28-746 isoform P06213-2 limits assumed): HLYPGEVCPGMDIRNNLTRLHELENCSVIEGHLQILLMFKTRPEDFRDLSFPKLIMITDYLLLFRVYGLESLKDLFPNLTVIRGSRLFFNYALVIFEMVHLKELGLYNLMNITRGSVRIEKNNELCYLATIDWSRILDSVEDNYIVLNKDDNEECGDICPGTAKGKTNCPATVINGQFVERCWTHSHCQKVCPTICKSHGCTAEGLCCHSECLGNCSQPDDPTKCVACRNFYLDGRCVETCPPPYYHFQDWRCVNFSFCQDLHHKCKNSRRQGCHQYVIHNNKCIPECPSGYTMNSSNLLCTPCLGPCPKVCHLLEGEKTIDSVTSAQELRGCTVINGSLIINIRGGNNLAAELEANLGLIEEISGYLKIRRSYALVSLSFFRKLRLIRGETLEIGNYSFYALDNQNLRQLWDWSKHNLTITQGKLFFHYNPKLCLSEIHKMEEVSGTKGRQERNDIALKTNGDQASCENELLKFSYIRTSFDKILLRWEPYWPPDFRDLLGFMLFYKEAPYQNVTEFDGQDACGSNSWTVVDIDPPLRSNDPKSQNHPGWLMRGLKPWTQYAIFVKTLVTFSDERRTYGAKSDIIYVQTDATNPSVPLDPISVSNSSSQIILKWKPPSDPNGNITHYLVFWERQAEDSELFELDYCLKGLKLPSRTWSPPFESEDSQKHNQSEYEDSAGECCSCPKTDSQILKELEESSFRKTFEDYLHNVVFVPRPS
human insulin receptor, sequence (P06213 763-1382 partner limits assumed): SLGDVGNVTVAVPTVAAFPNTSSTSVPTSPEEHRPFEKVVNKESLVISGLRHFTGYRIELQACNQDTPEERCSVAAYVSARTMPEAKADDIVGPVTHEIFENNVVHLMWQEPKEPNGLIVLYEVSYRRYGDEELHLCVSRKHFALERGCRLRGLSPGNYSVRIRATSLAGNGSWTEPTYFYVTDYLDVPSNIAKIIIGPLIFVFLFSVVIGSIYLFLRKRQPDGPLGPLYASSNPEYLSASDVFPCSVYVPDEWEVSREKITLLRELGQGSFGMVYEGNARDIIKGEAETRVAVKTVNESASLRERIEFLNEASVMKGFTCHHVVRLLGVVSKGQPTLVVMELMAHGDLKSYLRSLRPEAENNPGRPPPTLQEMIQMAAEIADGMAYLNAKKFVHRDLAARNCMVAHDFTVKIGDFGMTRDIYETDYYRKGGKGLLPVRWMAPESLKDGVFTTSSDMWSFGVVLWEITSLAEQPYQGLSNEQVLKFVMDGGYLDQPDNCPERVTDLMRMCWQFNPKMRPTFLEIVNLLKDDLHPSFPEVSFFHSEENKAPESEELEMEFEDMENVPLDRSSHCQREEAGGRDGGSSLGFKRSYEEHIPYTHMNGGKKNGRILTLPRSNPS

| Substance | Insulin receptor affinity in relation to human insulin |
| --- | --- |
| N^εB29-3-[2-(2-{2-[2-(ω-carboxy-heptadecanoylamino)-ethoxy]-ethoxy}-ethoxy)-ethoxy]-propionyl-γ-glutamyl desB30 human insulin [example 6] | 8.3 |
| N^εB29-(3-(2-{2-[2-(2-{2-[2-(2-{2-[2-(2-{2-[2-(13-carboxy-tridecanoylamino)-ethoxy]-ethoxy}-ethoxy)-ethoxy]-ethoxy}-ethoxy)-ethoxy]-ethoxy}-ethoxy)-ethoxy]-ethoxy}-ethoxy)-propionoyl-γ-glutamyl) desB30 human insulin [example 14] | 15 |
| N^εB29-(3-(2-{2-[2-(9-carboxynonanoylamino)ethoxy]ethoxy}ethylcarbamoyl) propionyl-γ-glutamyl) desB30 human insulin [example 10] | 27 |
| N^εB29-(3-(2-{2-[2-(15-Carboxy-pentadecanoylamino)-ethoxy]-ethoxy}-ethylcarbamoyl)-propionyl-γ-glutamyl) desB30 human insulin [example 17] | 17 |
| N^εB29-(3-(3-{2-[2-(3-[7-carboxyheptanoylamino]propoxy)ethoxy]-ethoxy}propylcarbamoyl)propionyl) desB30 human insulin [example 7] | 35 |
| N^εB29-(3-(3-{2-[2-(3-[9-Carboxynonanoylamino]propoxy)ethoxy]ethoxy}-propylcarbamoyl)propionyl) desB30 human insulin [example 9] | 34 |
| N^εB29-(3-(3-{4-[3-(7-Carboxyheptanoylamino)propoxy]butoxy}propylcarbamoyl)-propionyl-γ-glutamyl) desB30 human insulin [example 8] | 34 |
| N^εB29-(3-[2-(2-(2-[2-(13-Carboxy-tridecanoylamino)-ethoxy)-ethoxy]-ethoxy)-ethoxy]-propionoyl-γ-glutamyl) desB30 human insulin [example 15] | 35 |
| N^εB29-(3-[2-(2-{2-[2-(2-{2-[2-(13-carboxy-tridecanoylamino)-ethoxy]-ethoxy)-ethoxy)-ethoxy]-ethoxy}-ethoxy)-ethoxy]-ethoxy}-propionoyl-γ-glutamyl) desB30 human insulin [example 16] | 31 |
| N^εB29-(3-[2-(2-{2-[2-(15-carboxypentadecanoylamino)ethoxy]ethoxy}ethoxy)-ethoxy]propionyl)) desB30 human insulin [example 13] | 17 |
| N^εB29-(3-[2-{2-(2-[ω-carboxy-heptadecanoyl-γ-glutamyl-(2-amino-ethoxy)]-ethoxy)-ethoxy}-ethoxy]-propionyl) desB30 human insulin [example 2] | 12 |
| N^εB29-(3-[2-{2-(2-[ω-carboxy-pentadecanoyl-γ-glutamyl-(2-amino-ethoxy)]-ethoxy)-ethoxy}-ethoxy]-propionyl) desB30 human insulin [example 1] | 11 |
| N^εB29-(ω-[2-(2-{2-[2-(2-carboxy-ethoxy)-ethoxy]-ethoxy}-ethoxy)-ethylcarbamoyl]-heptadecanoyl-α-glutamyl) desB30 human insulin [example 4] | 9.2 |
| N^εB29-(ω-[2-(2-{2-[2-(2-carboxy-ethoxy)-ethoxy]-ethoxy}-ethoxy)-ethylcarbamoyl]-heptadecanoyl-γ-glutamyl) desB30 human insulin [example 5] | 5.6 |
| N^εB29-{3-[2-(2-{2-[2-(15-carboxy-pentadecanoylamino)-ethoxy]-ethoxy}-ethoxy)-ethoxy]-propionyl-γ-glutamyl desB30 human insulin [example 3] | 14 |
